The numbers were not newly measured in patent US20050080252A1, “Process for preparing antiviral nucleoside derivatives” (Roche Palo Alto LLC, priority 2003, published 2005), which cites them from elsewhere.

In data set [1] the test system is Th1 cytokine expression.
For data set [2] the following is noted: unlike ribavirin.

For `NC(=O)c1ncn([C@H]2O[C@@H](CO)[C@H](O)[C@@H]2O)n1` [levovirin, 1-(3S,4R-dihydroxy-5S-hydroxymethyl-tetrahydro-furan-2S-yl)-1H-[1,2,4]triazole-3 carboxylic acid amide], the “immune response / antiviral Th1 cytokine expression” value in data set [1] was “stimulates immune responses by enhancing antiviral Th1 cytokine expression”. Moreover, the direct antiviral activity result in data set [2] is reported as “does not have direct detectable antiviral activity”.
